Source: PMC6225478, “Natural Scaffolds with Multi-Target Activity for the Potential Treatment of Alzheimer’s Disease” (Molecules : A Journal of Synthetic Chemistry and Natural …, 2018)
Several values for one entry are separate records, joined by “and”; a condition that tells them apart may be missing. Equal values may be shown once. Read-outs that look alike come from different tables or passages of the source.

Columns and labels:
AChE [1] = test system: AChE; set-up: method as in earlier work; details: ref 40 (Ali et al.); read-out: AChEi (means ± SEMs of triplicate experiments); cited from earlier work
[2] = Antioxidant activity (DPPH radical scavenging assay); details: DPPH 100 µM in methanol, 30 min
Experimental: The DPPH assay is routinely practiced for the assessment of the free radical scavenging potential of an antioxidant molecule.
The DPPH radical scavenging assay was performed in 96-well microplates according to the method reported by Blois with some modifications.
A freshly prepared solution of DPPH in methanol (100 µM final concentration) was added to test compounds methanolic solution. The mixtures were shaken vigorously and left to stand in the dark for 30 min at room temperature. Then absorbance was read at 520 nm using a spectrophotometric plate reader (Victor 3 Perkin-Elmer).
The antioxidant activity was determined as the RSA% (radical scavenging activity) and calculated using the following equation: RSA% = 100 × [(Ao − Ai)/Ao] where Ao and Ai are the DPPH absorbance in the absence or in the presence of antioxidants, respectively. Different sample concentrations were used in order to obtain anti-radical curves for calculating the EC50 values. Anti-radical curves were plotted referring to log concentration on the x-axis and their RSA% on the y-axis. The EC50 values and statistical analyses were processed using the GraphPad Prism 5 software (San Diego, CA, USA).
Values of all parameters are expressed as mean ± SEM of at least three independent measurements in triplicate.

AChE from electric eel = target: T1, AChE from electric eel (Electrophorus electricus, UniProt O42275); assay: biochemical
T1 construct: purchased Sigma-Aldrich, Milan, Italy
T1 sequence (O42275 24-633): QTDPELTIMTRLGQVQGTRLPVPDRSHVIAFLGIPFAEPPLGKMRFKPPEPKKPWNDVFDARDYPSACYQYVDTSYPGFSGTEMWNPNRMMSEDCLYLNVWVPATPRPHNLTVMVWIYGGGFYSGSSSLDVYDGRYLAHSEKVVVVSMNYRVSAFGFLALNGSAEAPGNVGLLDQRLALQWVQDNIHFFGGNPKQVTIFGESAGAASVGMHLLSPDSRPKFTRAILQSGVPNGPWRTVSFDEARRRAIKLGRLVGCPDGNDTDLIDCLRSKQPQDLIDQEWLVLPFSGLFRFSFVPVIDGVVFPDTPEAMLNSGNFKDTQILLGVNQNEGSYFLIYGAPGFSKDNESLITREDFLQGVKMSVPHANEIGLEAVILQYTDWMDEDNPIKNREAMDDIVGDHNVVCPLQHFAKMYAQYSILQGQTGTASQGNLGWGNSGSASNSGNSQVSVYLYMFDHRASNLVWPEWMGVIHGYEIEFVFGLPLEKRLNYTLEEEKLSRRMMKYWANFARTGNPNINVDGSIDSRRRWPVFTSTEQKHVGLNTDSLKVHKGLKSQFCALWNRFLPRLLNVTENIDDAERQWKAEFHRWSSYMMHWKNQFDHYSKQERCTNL
Experimental: (§1) A modified protocol of Ellman’s spectrophotometric assay [54] adapted to a 96-well plate procedure was followed as previously described [39]. Incubation samples of AChE from electric eel or BChE from equine serum (eeAChE, 463 U/mg, and esBChE, 13 U/mg, Sigma-Aldrich, Milan, Italy) were set in phosphate buffer (pH 8.0) containing 0.5 mM 5,5′-dithiobis(2-nitrobenzoic acid) (DTNB; Sigma-Aldrich, Milan, Italy) as the chromophoric reagent alone or in the presence of the inhibitor (10 μM). Incubations were carried out in clear flat-bottomed, 96-well plates (Greiner Bio-One GmbH, Frickenhausen, Germany) in duplicate. […] After incubation for 20 min at 25 °C, 0.5 mM acetyl- or butyrylthiocholine iodide (Sigma-Aldrich, Milan, Italy) were added as the substrates and AChE-catalyzed hydrolysis was followed by measuring the increase of absorbance at 412 nm for 5 min at 25 °C in a Tecan Infinite M1000 Pro multiplate reader (Tecan, Cernusco S.N., Italy). Inhibition values and IC50s were calculated with a GraphPad Prism as the mean of three independent experiments and are expressed as mean ± SEM.

BChE from equine serum = target: T2, BChE from equine serum (Equus caballus, UniProt P81908); assay: BChE inhibition, modified Ellman's spectrophotometric assay; type: biochemical; details: for esBChEi %I (10μM): percentage of inhibition at 10 μM inhibitor, equine serum BChE
T2 construct: purchased Sigma-Aldrich, Milan, Italy; host or cells: equine serum
T2 sequence (P81908 whole entry): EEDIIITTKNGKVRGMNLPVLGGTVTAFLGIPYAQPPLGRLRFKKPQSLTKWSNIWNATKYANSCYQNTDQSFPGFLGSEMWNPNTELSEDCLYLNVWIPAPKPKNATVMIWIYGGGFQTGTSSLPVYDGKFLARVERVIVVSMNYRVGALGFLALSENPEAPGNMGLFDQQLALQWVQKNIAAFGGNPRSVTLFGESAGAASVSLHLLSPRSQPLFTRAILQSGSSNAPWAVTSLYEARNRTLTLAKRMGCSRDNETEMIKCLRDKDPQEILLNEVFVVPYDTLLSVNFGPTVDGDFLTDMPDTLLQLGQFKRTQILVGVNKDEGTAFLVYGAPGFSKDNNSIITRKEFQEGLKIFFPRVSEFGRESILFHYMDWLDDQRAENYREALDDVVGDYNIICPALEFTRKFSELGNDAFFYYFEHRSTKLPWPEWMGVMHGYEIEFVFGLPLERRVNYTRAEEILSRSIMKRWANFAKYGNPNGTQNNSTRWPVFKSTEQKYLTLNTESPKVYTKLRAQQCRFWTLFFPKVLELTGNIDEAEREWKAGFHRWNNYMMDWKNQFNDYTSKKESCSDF
Experimental: as §1

Aβ1–40 = target: T3, Aβ1–40 (Homo sapiens, UniProt P05067); assay: Inhibition of Aβ1–40 aggregation (ThT fluorescence); type: biochemical; details: Aβ1–40 30 μM; for IC50: 2 h at 25 °C, ThT fluorescence; for iAβ %I (100μM): percentage of inhibition at 100 μM inhibitor
T3 construct: diluting Aβ1–40 (EZBiolab, Carmel, IN, USA); purchased EZBiolab, Carmel, IN, USA
T3 sequence (P05067 672-711): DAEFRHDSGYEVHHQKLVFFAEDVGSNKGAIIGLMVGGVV
Experimental: The spectrofluorimetric assays measured ThT fluorescence in the presence of Aβ and were done as previously described [39]. Co-incubation samples were prepared in 96-well black, non-binding microplates (Greiner Bio-One GmbH, Frickenhausen, Germany) by diluting Aβ1–40 (EZBiolab, Carmel, IN, USA) alone or in the presence of the inhibitor to a final concentration of 30 μM and 100 μM, respectively, in PBS (pH 7.4) containing 10% DMSO and 2% 1,1,1,3,3,3-hexafluoro-2-propanol (HFIP). After 2 h of incubation at 25 °C, 25 μM ThT solution in phosphate buffer (pH 6.0) was added and fluorescence was read in a multi-plate reader Infinite M1000 Pro (Tecan, Cernusco S.N., Italy). […] Assays were run in triplicate. Values are expressed as mean ± SEM.

AChE [3] = test system: AChE; set-up: method as in PMID 20692939; details: cited from earlier work
BChE = test system: BChE; set-up: method as in PMID 28286309; details: at 100 μg/mL; cited from earlier work
Aβ = test system: Aβ; set-up: method as in PMID 21261647; details: read-out: Inhibitory activity of Aβ aggregation IC50; cited from earlier work
AChE [4] = test system: AChE; set-up: method as in PMID 28286309; details: at 100 μg/mL; cited from earlier work
[5] = acetylcholinesterase from electric eel, mean ± SEM, read-out: eeAChEi IC50 (μM ± SEM)
[6] = butyrylcholinesterase from equine serum, mean ± SEM, i.a. = not active

For `O=Cc1cc2ccc(=O)oc2cc1O` [6-formyl-umbelliferone], the IC50 (AChE [1]) is listed as 16.7 ± 1.62 µM.
In the case of `O=Cc1c(O)ccc2ccc(=O)oc12` [8-formyl-umbelliferon], the IC50 (AChE [1]) is listed as 19.1 ± 0.57 µM.
In the case of `Oc1c(I)cc(Cl)c2cccnc12` [Clioquinol, reference compound], the “Antioxidant Activity EC50 (μmol/µmol of DPPH ± SEM)” value [2] is reported as 0.74 ± 0.04 μmol/µmol of DPPH, the IC50 (AChE from electric eel; [5]) is reported as 8.12 ± 1 µM and the “esBChEi %I (10μM)” value (BChE from equine serum) is reported as “%I (10μM): 10 ± 1%”. For the same compound, the IC50 (Aβ1–40; read-out: iAβ IC50 (μM ± SEM)) was 7.6 ± 0.8 µM.
In the case of `CC[C@H](C)[C@@H]1NC(=O)C(C(C)=O)=C1O` [Compound 1, Tenuazonic acid], the “Antioxidant Activity EC50 (μmol/µmol of DPPH ± SEM)” value [2] is reported as 2.6 μmol/µmol of DPPH and 2.6 ± 0.2 μmol/µmol of DPPH, the IC50 (AChE from electric eel) is reported as 8.13 ± 0.08 µM and the IC50 (Aβ1–40; iAβ IC50 (μM ± SEM)) is reported as ~100 µM. For the same compound, the “iAβ %I (100μM)” value (Aβ1–40) was “%I (100μM): 50 ± 8”.
In the case of `C/C=C/c1cc2c(c(=O)o1)[C@@H](O)[C@@H](O)[C@H](C)O2` [Compound 2, 2-epi-Radicinol], the “Antioxidant Activity EC50 (μmol/µmol of DPPH ± SEM)” value [2] is reported as > 100 μmol/µmol of DPPH, the IC50 (AChE from electric eel; [5]) is reported as 6.86 ± 0.67 µM and the “esBChEi IC50 (μM ± SEM)” value (BChE from equine serum; [6]) is reported as “i.a”. It also gave an IC50 (Aβ1–40; read-out: iAβ IC50 (μM ± SEM)) of 74 ± 1 µM.
For `COc1c(C)c2c(c(O)c1C/C=C(\C)CCC(=O)O)C(=O)OC2` [Compound 3, Mycophenolic acid], the “Antioxidant Activity EC50 (μmol/µmol of DPPH ± SEM)” value [2] was 14.7 μmol/µmol of DPPH and 14.7 ± 3.4 μmol/µmol of DPPH, the IC50 (AChE from electric eel; [5]) was 7.84 ± 0.72 µM and the “esBChEi IC50 (μM ± SEM)” value (BChE from equine serum; [6]) was “i.a”. The “iAβ %I (100μM)” value (Aβ1–40) was “%I (100μM): 38 ± 3”.
In the case of `COc1cc(O)c2c(c1)C[C@@H](C)OC2=O` [Compound 4, 6-Methoxymellein], the “Antioxidant Activity EC50 (μmol/µmol of DPPH ± SEM)” value [2] is reported as > 100 μmol/µmol of DPPH, the IC50 (AChE from electric eel; [5]) is reported as 11.4 ± 0.8 µM and the “esBChEi %I (10μM)” value (BChE from equine serum) is reported as “%I (10μM): 10 ± 3%”. For the same compound, the IC50 (Aβ1–40; read-out: iAβ IC50 (μM ± SEM)) was 98 ± 3 µM.
For `C/C=C/c1cc2c(c(=O)o1)C(=O)[C@@H](O)[C@H](C)O2` [Compound 5, Radicinin], the “Antioxidant Activity EC50 (μmol/µmol of DPPH ± SEM)” value [2] was >100 μmol/µmol of DPPH, the IC50 (AChE from electric eel; [5]) was 8.96 ± 0.97 µM and the “esBChEi %I (10μM)” value (BChE from equine serum) was “%I (10μM): 6 ± 1%”. The “iAβ %I (100μM)” value (Aβ1–40) was “%I (100μM): 44 ± 3”.
With `COC(=O)/C=C/c1ncn(C)c1CC=C(C)C` [Compound 6, Fungerin] the “Antioxidant Activity EC50 (μmol/µmol of DPPH ± SEM)” value [2] was >100 μmol/µmol of DPPH, the IC50 (AChE from electric eel; [5]) was 86 ± 15 µM and the IC50 (BChE from equine serum; butyrylcholinesterase from equine serum, mean ± SEM, i.a. = not active, read-out: esBChEi IC50 (μM ± SEM)) was 1.75 ± 0.59 µM. For the same compound, the “Potency on BChE compared to that on AChE” value (BChE from equine serum; esBChE vs eeAChE IC50) was “about 50 times”, the “iAβ %I (100μM)” value (Aβ1–40) was “%I (100μM): 33 ± 9” and the “Activity as an AChE inhibitor” value (AChE [3]) was “medium-high micromolar range”.
In the case of `COc1ccc2c3c1O[C@H]1C[C@@H](O)C=C[C@@]31CCN(C)C2` [Galantamine], the “Percentage of inhibition against BChE” value (BChE) is given as 81.93 ± 2.52%.
For `O=C(O)c1cc(O)c(O)c(O)c1` [Gallic acid, reference compound], the “Antioxidant Activity EC50 (μmol/µmol of DPPH ± SEM)” value [2] was 0.054 ± 0.004 μmol/µmol of DPPH.
In the case of `O=c1c(O)c(-c2ccc(O)c(O)c2)oc2cc(O)cc(O)c12` [Quercetin, reference compound], the IC50 (Aβ1–40; read-out: iAβ IC50 (μM ± SEM)) is reported as 0.82 ± 0.07 µM.
For `Oc1ccc(/C=C/c2cc(O)cc3c2[C@H](c2cc(O)cc(O)c2)[C@@H](c2ccc(O)c(O)c2)O3)cc1` [scirpusin A], the IC50 (Aβ) is given as 0.7 ± 0.3 µM.
For pteryxin, the “Percentage of inhibition against BChE” value (BChE) is given as 91.62 ± 1.53% and the “Percentage of inhibition against AChE” value (AChE [4]) is given as 9.30 ± 1.86%.
For ε-viniferin glucoside, the IC50 (Aβ) is given as 0.2 ± 0.3 µM.
